The record followed here is patent publication US12139499B2, “Heteroaryl compounds for treating Huntington's disease” (PTC THERAPEUTICS, INC., priority 2018, dated 2024).

This assay concerns Endogenous Huntingtin Protein. In words: Endogenous Huntingtin Protein Assay (ELISA-based MSD electrochemiluminescence). It counts as cell-based. Particulars: Table 1. Summed up: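 Sandwich MSD electrochemiluminescence immunoassay. Capture used MW1 (expanded polyglutamine) or MAB2166 antibody coated at 1 μg/mL overnight at 4 °C. Samples were bound overnight at 4 °C, then a rabbit monoclonal detection antibody and SULFO-TAG anti-rabbit, each at 0.25 μg/mL, were applied for 1 h at room temperature.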

With `Cc1cn2nc(-c3cc(F)c4nc(N(C)C5CC6CCC(C5)N6)sc4c3)cc(C)c2n1` (stereo not drawn) [Compound 192, N-[(3-exo)-8-azabicyclo[3.2.1]oct-3-yl]-6-(2,8-dimethylimidazo[1,2-b]pyridazin-6-yl)-4-fluoro-N-methyl-1,3-benzothiazol-2-amine], the IC50 is not above 0.1 µM.

For the compound `CN(c1nc2cnc(-c3cc(C#N)c4nn(C)cc4c3)nc2s1)C1CCNCC1` [Compound 193, 2-methyl-5-{2-[methyl(piperidin-4-yl)amino][1,3]thiazolo[5,4-d]pyrimidin-5-yl}-2H-indazole-7-carbonitrile], the IC50 is not above 0.1 µM.

In the case of `Cc1cn2nc(-c3cc(F)c4nc(C56CCN(CC5)CC6)sc4c3)cc(C)c2n1` [Compound 194, 6-[2-(1-azabicyclo[2.2.2]oct-4-yl)-4-fluoro-1,3-benzothiazol-6-yl]-2,8-dimethylimidazo[1,2-b]pyridazine], the IC50 was not above 0.1 µM.

`Cc1cn2nc(-c3cc(F)c4nc(C5CCNCC5)sc4c3)cc(Oc3ccccc3)c2n1` [Compound 195, 6-[4-fluoro-2-(piperidin-4-yl)-1,3-benzothiazol-6-yl]-2-methyl-8-phenoxyimidazo[1,2-b]pyridazine] came in with an IC50 not above 0.1 µM.

As to `Cc1cn2cc(-c3ncc4nc(N(C)C5CCNCC5)sc4n3)cc(C#N)c2n1` [Compound 196, 2-methyl-6-{2-[methyl(piperidin-4-yl)amino][1,3]thiazolo[5,4-d]pyrimidin-5-yl}imidazo[1,2-a]pyridine-8-carbonitrile], the IC50 is not above 0.1 µM.

As for `COc1cc(-c2ncc3nc(N(C)C4CC(C)(C)NC(C)(C)C4)sc3n2)cc2cn(C)nc12` [Compound 197, 5-(7-methoxy-2-methyl-2H-indazol-5-yl)-N-methyl-N-(2,2,6,6-tetramethylpiperidin-4-yl)[1,3]thiazolo[5,4-d]pyrimidin-2-amine], the IC50 fell in the range of 0.1 to 0.5 µM.

`Cc1cn2cc(-c3cc4sc(N(C)C5CCNCC5)nc4cn3)cc(C#N)c2n1` [Compound 198, 2-methyl-6-{2-[methyl(piperidin-4-yl)amino][1,3]thiazolo[4,5-c]pyridin-6-yl}imidazo[1,2-a]pyridine-8-carbonitrile] came in with an IC50 not above 0.1 µM.

`Cc1cn2cc(-c3cc4sc(NC5CC6CCC(C5)N6)nc4cn3)cc(C#N)c2n1` (stereo not drawn) [Compound 199, 6-{2-[(3-exo)-8-azabicyclo[3.2.1]oct-3-ylamino][1,3]thiazolo[4,5-c]pyridin-6-yl}-2-methylimidazo[1,2-a]pyridine-8-carbonitrile] came in with a half-maximal inhibitory concentration (IC50) not above 0.1 µM.

Consider `COc1cc(-c2cc(F)c3nc(N(C)C4CC(C)(C)NC(C)(C)C4)sc3c2)nn2cc(C)nc12` [Compound 200, 4-fluoro-6-(8-methoxy-2-methylimidazo[1,2-b]pyridazin-6-yl)-N-methyl-N-(2,2,6,6-tetramethylpiperidin-4-yl)-1,3-benzothiazol-2-amine], for which the IC50 was not above 0.1 µM.

`Cc1cn2nc(-c3cc(F)c4nc(N(C)C5CC(C)(C)NC(C)(C)C5)sc4c3)cc(N)c2n1` [Compound 201, 6-{4-fluoro-2-[methyl(2,2,6,6-tetramethylpiperidin-4-yl)amino]-1,3-benzothiazol-6-yl}-2-methylimidazo[1,2-b]pyridazin-8-amine] yielded an IC50 of 0.1 to 0.5 µM.

Take `COc1cc(-c2cc(F)c3nc(N(C)C4CCNCC4)sc3c2)nn2cc(C)nc12` [Compound 202, 4-fluoro-6-(8-methoxy-2-methylimidazo[1,2-b]pyridazin-6-yl)-N-methyl-N-(piperidin-4-yl)-1,3-benzothiazol-2-amine]: the IC50 is not above 0.1 µM.

Take `Cc1cn2cc(-c3cc4sc(N(C)C5CC6CCC(C5)N6)nc4cn3)cc(C#N)c2n1` (stereo not drawn) [Compound 203, 6-{2-[(3-exo)-8-azabicyclo[3.2.1]oct-3-yl(methyl)amino][1,3]thiazolo[4,5-c]pyridin-6-yl}-2-methylimidazo[1,2-a]pyridine-8-carbonitrile]: the IC50 is not above 0.1 µM.

`Cc1cn2cc(-c3cc4sc(N(C)C5CC6CCC(C5)N6)nc4cn3)cc(F)c2n1` (stereo not drawn) [Compound 204, N-[(3-exo)-8-azabicyclo[3.2.1]oct-3-yl]-6-(8-fluoro-2-methylimidazo[1,2-a]pyridin-6-yl)-N-methyl[1,3]thiazolo[4,5-c]pyridin-2-amine] came in with an IC50 not above 0.1 µM.

`CN(c1nc2cnc(-c3cc(F)c4nn(C)cc4c3)cc2s1)C1CC2CCC(C1)N2` (stereo not drawn) [Compound 205, N-[(3-exo)-8-azabicyclo[3.2.1]oct-3-yl]-6-(7-fluoro-2-methyl-2H-indazol-5-yl)-N-methyl[1,3]thiazolo[4,5-c]pyridin-2-amine] gave an IC50 not above 0.1 µM.

Compound `CN(c1nc2cnc(-c3cc(C#N)c4nn(C)cc4c3)cc2s1)C1CC2CCC(C1)N2` (stereo not drawn) [Compound 206, 5-{2-[(3-exo)-8-azabicyclo[3.2.1]oct-3-yl(methyl)amino][1,3]thiazolo[4,5-c]pyridin-6-yl}-2-methyl-2H-indazole-7-carbonitrile] showed an IC50 not above 0.1 µM.

Compound `Cc1cn2cc(-c3ncc4nc(N(C)C5CC6CCC(C5)N6)sc4n3)cc(C#N)c2n1` (stereo not drawn) [Compound 207, 6-{2-[(3-exo)-8-azabicyclo[3.2.1]oct-3-yl(methyl)amino][1,3]thiazolo[5,4-d]pyrimidin-5-yl}-2-methylimidazo[1,2-a]pyridine-8-carbonitrile] showed an IC50 not above 0.1 µM.

As for `CN(c1nc2cnc(-c3cc(C#N)c4nn(C)cc4c3)nc2s1)C1CC2CCC(C1)N2` (stereo not drawn) [Compound 208, 5-{2-[(3-exo)-8-azabicyclo[3.2.1]oct-3-yl(methyl)amino][1,3]thiazolo[5,4-d]pyrimidin-5-yl}-2-methyl-2H-indazole-7-carbonitrile], the IC50 is not above 0.1 µM.

Compound `Cc1cn2nc(-c3cc(F)c4nc(N(C)C5CC6CCC(C5)N6)sc4c3)ccc2n1` (stereo not drawn) [Compound 209, N-[(3-exo)-8-azabicyclo[3.2.1]oct-3-yl]-4-fluoro-N-methyl-6-(2-methylimidazo[1,2-b]pyridazin-6-yl)-1,3-benzothiazol-2-amine] showed an IC50 not above 0.1 µM.

As to `Cc1cn2nc(-c3cc(F)c4nc(C5(C)CCNCC5)sc4c3)cc(C)c2n1` [Compound 210, 6-[4-fluoro-2-(4-methylpiperidin-4-yl)-1,3-benzothiazol-6-yl]-2,8-dimethylimidazo[1,2-b]pyridazine], the IC50 is 0.5 to 1 µM.

The compound `Cn1cc2cc(-c3cc4sc(NC5CC6CCC(C5)N6)nc4cn3)cc(F)c2n1` (stereo not drawn) [Compound 211, N-[(3-exo)-8-azabicyclo[3.2.1]oct-3-yl]-6-(7-fluoro-2-methyl-2H-indazol-5-yl)[1,3]thiazolo[4,5-c]pyridin-2-amine] displayed an IC50 not above 0.1 µM.

In the case of `Cc1cn2cc(-c3cc4sc(NC5CC6CCC(C5)N6)nc4cn3)cc(F)c2n1` (stereo not drawn) [Compound 212, N-[(3-exo)-8-azabicyclo[3.2.1]oct-3-yl]-6-(8-fluoro-2-methylimidazo[1,2-a]pyridin-6-yl)[1,3]thiazolo[4,5-c]pyridin-2-amine], the IC50 is not above 0.1 µM.

On to `Cn1cc2cc(-c3cc4sc(NC5CC6CCC(C5)N6)nc4cn3)cc(C#N)c2n1` (stereo not drawn) [Compound 213, 5-{2-[(3-exo)-8-azabicyclo[3.2.1]oct-3-ylamino][1,3]thiazolo[4,5-c]pyridin-6-yl}-2-methyl-2H-indazole-7-carbonitrile], for which the IC50 is not above 0.1 µM.

Compound `CN(c1nc2cnc(-c3cc(C#N)c4nn(C)cc4c3)cc2s1)C1CCNCC1` [Compound 214, 2-methyl-5-{2-[methyl(piperidin-4-yl)amino][1,3]thiazolo[4,5-c]pyridin-6-yl}-2H-indazole-7-carbonitrile] gave an IC50 not above 0.1 µM.
